Tests used:
IL-1β protease = biological target: T1, IL-1β protease (Homo sapiens, UniProt P29466); assay: IL-1β protease inhibition activity (HPLC assay, substrate TRITC-AYVHDAPVRS-NH2); assay type: biochemical; details: partially purified IL-1β protease; 15 min preincubation with inhibitor at 37° C., 60 min reaction
T1 construct: Partially purified IL-1β protease is stored at −80° C
T1 sequence (P29466 120-297 limits assumed): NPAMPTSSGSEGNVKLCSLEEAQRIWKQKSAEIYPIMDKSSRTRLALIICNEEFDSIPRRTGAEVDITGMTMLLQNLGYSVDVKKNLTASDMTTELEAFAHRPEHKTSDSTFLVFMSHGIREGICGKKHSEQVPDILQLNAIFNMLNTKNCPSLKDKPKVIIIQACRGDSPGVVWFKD
T1 sequence (P29466 317-404 limits assumed): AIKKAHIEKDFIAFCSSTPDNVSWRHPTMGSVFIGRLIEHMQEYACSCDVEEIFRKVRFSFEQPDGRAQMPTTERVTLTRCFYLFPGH
Experimental: Compounds of the present invention were tested for IL-1β protease inhibition activity according to the following protocol:
Partially purified IL-1β protease is stored at −80° C., thawed on ice, and preincubated for 10 minutes at 37° C. with 2.5 mM dithiothreitol in a buffer solution containing 10 mM Tris-HCl (pH 8.0) and 25% (v/w) glycerol. Inhibitors are prepared as stock solutions in dimethyl sulfoxide (DMSO). The protease is preincubated with inhibitor in a volume of […] in a 1.5 ml polypropylene microcentrifuge tube for 15 minutes at 37° C. The volume of compound added to the assay is adjusted to yield a DMSO concentration in the preincubation of <15% (v/v). The enzyme assay is then initiated by the addition of substrate (TRITC-AYVHDAPVRS-NH2) to yield a final concentration of […] in a final volume of […]. The reaction are carried out for 60 minutes at 37° C. in the dark and are terminated by the addition of […] of 10% trifluoroacetic acid (TFA). Following the addition of […] of 0.1% TFA, the samples are analyzed by high pressure liquid chromatography using a reverse phase (C18) column and elution with an acetonitrile/water/FA gradient. Substrate and product are monitored by their absorbance at 550 nm and elute at 4.2 and 5.2 minutes, respectively.

[1] = tested on: mature IL-1β release from human monocytes; assay: Release of mature IL-1β from human monocytes (pulse chase assay); assay type: cell-based; details: inhibition of release of mature IL-1β; human monocytes activated with fixed S. aureus; 2-3 donors; read-out: in vivo IC50
Experimental: Compounds of the present invention were tested for their ability to block mature IL-1β release from cells (monocytes) as described in the following protocol:
Protocol for Monitoring Release of Mature IL-1β-From Human Monocytes
Human monocytes were isolated from heparinized leukopheresis units obtained through Biological Specialty Corporation (Lansdale, Pa.). Monocytes were purified by Ficoll-Hupaque (Pharmacia Fine Chemicals, Piscataway, N.J.) gradient centrifugation and more than 95% pure monocyte populations obtained by centrifugal elutriation. The assay was performed on duplicate samples of freshly isolated human monocytes, cultured in suspension at 37° C. and rotated gently in conical bottom polypropylene tubes (Sardstedt Inc., Princeton, N.J.). Human monocytes at a concentration of 5×10^6 cells/mL were resuspended in 1 mL of RPMI 1640 (a common tissue buffer from M.A. Bioproducts, Walkersyille, Md.) containing 1% fetal calf serum (FCS) (HyClone, Logan, Utah) and 50 μg/mL gentamycin (Gibco, Grand Island, N.Y.). The cells were treated either with a compound of the invention (i.e. test compound) or with a non-inhibitor (control compound, typically 0.03% DMSO) for 15 minutes and then activated with 0.01% fixed Staphylococcus aureus (The Enzyme Center, Malden, Mass.) for 1 hour. The cells were then centrifuged and resuspended in 1 mL of cysteine, methionine-free RPMI media containing 1% dialyzed FCS (Hyclone). The cells were pretreated with a test compound or control compound for 15 minutes after which 0.01% fixed S. aureus plus 100 μCi Tran 35-S label (ICN, Irvine, Calif.) was added and the cells incubated at 37° C. for 1 hour. After incubation, cells were centrifuged, washed once in phosphate buffer saline and resuspended in 1 ML RPMI containing 1% fetal calf serum The cells were again pretreated with a test or control compound for 15 minutes and then 0.01% S. aureus for 2 hours. At the end of the incubation, cells were centrifuged and supernates saved for immunoprecipitation. Cells were washed once in phosphate buffer saline and then lysed in RIPA, a continuous cell media buffer containing 2 mM phenylmethylsulfonyl fluoride, 10 mM iodoacetate, 1 μg/mL pepstatin A, 1 μg/mL leupeptin and 0.5 TIU aprotinin.
For the immunoprecipitations, an equal volume of 1% dry milk in RIPA buffer plus 50 μL of resuspended protein A sepharose CL-4B (Pharmacia, Piscataway, N.Y.) was added to supernates and 1 mL of 4% dry milk containing protein A sepharose CL-4B to cell lysates and samples rotated for 30 minutes at 4° C. Beads were then centrifuged down, samples transferred to fresh tubes and incubated overnight with 40 μg rabbit antihuman IL1B polyclonal antibody (Genzyme, Cambridge, Mass.). The IL-1β proteins were then precipitated with 70 μL protein A sepharose, resuspended in 60 μL SDS sample buffer and run on 15% […] gels. Autoradiography was performed on dried gels and the amount of radioactivity (counts per minute, cpm) quantitated using a Betascope 603 analyzer.
In the monocyte pulse chase assay, each test parameter was run in duplicate. Data was collected from the Beta Scope using a personal computer, then transferred to the VAX system for calculation of mean cpm and standard deviation of the mean. When test compounds were evaluated, the percent inhibition of release of mature IL1β was calculated as follows:
100×[1−(cells treated with stimuli+test compound−unstimulated cells)/(cells teed with stimuli+control compound−unstimulated cells)]
These % inhibition values were then used to calculate IC50 value for each compound. Since the human monocyte pulse chase assay uses primary cells from different donors, each test compound was run in 2-3 separate experiments, using monocytes from 2-3 different donors.

Compound | IC50 (IL-1β protease) | IC50 [1] | melting point
O=C(O)C[C@H](NC(=O)OCc1ccccc1)C(=O)COC(=O)c1c(Cl)cccc1Cl [Example 38, N-benzyloxycarbonyl-L-aspartic acid 2,6-dichlorobenzoyloxymethyl ketone] | 50 nM | 10000 nM | –
O=C(O)C[C@H](NC(=O)OCc1ccccc1)C(=O)COC(=O)c1c(C(F)(F)F)cccc1C(F)(F)F [Example 40, N-Benzyloxycarbonyl-L-aspartic acid 2,6-ditrifluoromethyl benzoyloxymethyl ketone] | 100 nM | – | –
O=C(O)C[C@H](NC(=O)OCc1ccccc1)C(=O)COc1c(Cl)cccc1Cl [Example 41, N-Benzyloxycarbonyl-L-aspartic acid 2,6 dichlorophenoxymethyl ketone] | 100 nM | – | –
O=C(O)C[C@H](NC(=O)OCc1ccccc1)C(=O)COc1ccc(S(=O)(=O)N2CCOCC2)cc1F [Example 42, N-Benzyloxycarbonyl-L-aspartic acid 2-fluoro-4-(N-morpholinylsulfonamido)phenoxymethyl ketone] | 320 nM | – | 65 to 66 °C
COc1cccc(OC)c1C(=O)OCC(=O)[C@H](CC(=O)O)NC(=O)OCc1ccccc1 [Example 45, N-Benzyloxycarbonyl-L-aspartic acid 2,6-dimethoxybenzoyloxy methyl ketone] | – | ~100000 nM | –
O=C(O)C[C@H](NC(=O)OCc1ccccc1)C(=O)COC(=O)c1c(F)cccc1F [Example 48, N-Benzyloxycarbonyl-L-aspartic acid 2,6-difluorobenzoyloxymethyl ketone] | – | ~100000 nM | –
CCCCNS(=O)(=O)c1ccc(Cl)c(C(=O)OCC(=O)[C@H](CC(=O)O)NC(=O)OCc2ccccc2)c1Cl [Example 49, N-Benzyloxycarbonyl-L-aspartic acid 3-(N-butylsulfonamido)-2,6-dichlorobenzoyloxymethyl ketone] | 90 nM | – | 48 to 50 °C
NC(=O)CNS(=O)(=O)c1ccc(Cl)c(C(=O)OCC(=O)[C@H](CC(=O)O)NC(=O)OCc2ccccc2)c1Cl [Example 52, N-Benzyloxycarbonyl-L-aspartic acid 3-(N-[2-aminoacetamidoyl]sulfonamido)-2,6-dichlorobenzoyloxymethyl ketone] | 60 nM | – | 54 to 56 °C
O=C(O)C[C@H](NC(=O)OCc1ccccc1)C(=O)COC(=O)c1c(Cl)ccc(S(=O)(=O)N2CCOCC2)c1Cl [Example 53, N-Benzyloxycarbonyl-L-aspartic acid 2,6-dichloro-3-(N-morpholinylsulfonamido)benzoyloxymethyl ketone] | 90 nM | – | –
COC(=O)N[C@@H](C)C(=O)N[C@@H](CC(=O)O)C(=O)COC(=O)c1c(Cl)cccc1Cl [Example 54, N-Methoxycarbonyl-L-alanine-L-aspartic acid 2,6-dichlorobenzoyloxymethyl ketone] | 60 nM | – | –
COC(=O)N[C@@H](Cc1ccccc1)C(=O)N[C@@H](CC(=O)O)C(=O)COC(=O)c1c(Cl)cccc1Cl [Example 57, N-Methoxycarbonyl-L-phenylalanine-L-aspartic acid 2,6-dichlorobenzoyloxymethyl ketone] | 70 nM | – | –
CC(C)[C@H](NC(=O)OCc1ccccc1)C(=O)N[C@@H](CC(=O)O)C(=O)COC(=O)c1c(Cl)cccc1Cl [Example 61, N-Benzyloxycarbonyl-L-valine-L-aspartic acid 2,6-dichlorobenzoyloxy-methyl ketone] | – | 900 nM | –
CC(C)[C@H](NC(=O)OCc1ccccc1)C(=O)N[C@@H](C)C(=O)N[C@@H](CC(=O)O)C(=O)COC(=O)c1c(Cl)cccc1Cl [Example 63, N-Benzyloxycarbonyl-L-valine-L-alanine-L-aspartic acid 2,6-di-chlorobenzoyloxymethyl ketone] | – | 500 nM | –
O=C(O)C[C@H](NC(=O)c1ccco1)C(=O)COC(=O)c1c(Cl)cccc1Cl [Example 64, N-(2-Furonyl)carbonyl-L-aspartic acid 2,6-dichlorobenzoyloxymethyl ketone] | 140 nM | – | –
O=C(O)C[C@H](NC(=O)c1ccco1)C(=O)COC(=O)c1c(Cl)ccc(S(=O)(=O)N2CCOCC2)c1Cl [Example 65, N-(2-Furonyl)carbonyl-L-aspartic acid 2,6-dichloro-3-(N-morpholinylsulfonamido)benzoyloxymethyl ketone] | – | 30000 nM | –
CN(C)Cc1ccc(C(=O)N[C@@H](CC(=O)O)C(=O)COC(=O)c2c(Cl)cccc2Cl)cc1 [Example 68, N-(4-N,N-dimethylaminomethyl)benzoyl-L-aspartic acid 2,6-dichlorobenzoyloxymethyl ketone] | 300 nM | – | 55 to 57 °C
O=C(O)C[C@@H](NC(=O)OCc1ccccc1)C(=O)COC(=O)c1c(Cl)cccc1Cl [Example 69, N-Benzyloxycarbonyl-D-aspartic acid 2,6-dichlorobenzoyloxymethyl ketone] | – | 10000 nM | –
O=C(O)C[C@H](NC(=O)COC(=O)c1c(Cl)cccc1Cl)C(=O)COC(=O)c1c(Cl)cccc1Cl [Example 70] | 200 nM | – | –
CCN(CC)S(=O)(=O)c1c(F)c(F)c(OCC(=O)[C@H](CC(=O)O)NC(=O)[C@@H](NC(=O)OCc2ccccc2)C(C)C)c(F)c1F [Example 71, N-Benzyloxycarbonyl-L-valine-L-aspartic acid 4-(N,N-diethyl-sulfonamido)-2,3,5,6-tetrafluorophenoxymethyl ketone] | – | 5000 nM | –
N-Methoxycarbonyl-L-aspartic acid 2,6-dichlorobenzoyloxymethyl ketone [Example 67] | 80 nM | – | –
N-Methoxycarbonyl-L-valine-L-aspartic acid 2,6-dichlorobenzoyloxy-methyl ketone [Example 59] | – | 10000 nM | –
